Reference: the Deep4Chem optical property database
Values joined by “and” are separate entries in the source; they are usually repeats but may differ in a detail not shown here. Identical values can stand only once. Each block holds one compound with its values, some of them ahead of it.

Assay: solvent given as SMILES

SMILES: CCCCC[n+]1ccc(/C=C/c2ccc(N(C)C)c3ccccc23)c2ccccc21
- emission maximum (in C1CCOC1): 697 nm
- emission maximum (in C1COCCO1): 680 nm
- emission maximum (in CC#N): 720 nm
- emission maximum (in CC(C)=O): 714 nm
- emission maximum (in CCCCO): 695 nm
- emission maximum (in CCO): 670 nm
- emission maximum (in CN(C)C=O): 721 nm
- emission maximum (in CO): 708 nm
- emission maximum (in CS(C)=O): 720 nm
- emission maximum (in O): 697 nm
- emission maximum (in c1ccccc1): 675 nm
- emission maximum (in c1ccncc1): 706 nm

SMILES: CCn1c2ccccc2c2cc(/C=C/c3cccc[n+]3CCCS(=O)(=O)[O-])ccc21
- emission maximum (in C1CCOC1): 559 nm
- emission maximum (in CC#N): 565 nm
- emission maximum (in CC(C)=O): 565 nm
- emission maximum (in Cc1ccccc1): 590 nm

SMILES: CCCCCCCCCCCCN1C(=O)c2c(c3ccc4cc(-c5cccs5)c(OC)cc4c3c3c2ccc2cc(-c4cccs4)c(OC)cc23)C1=O
- emission maximum (in ClCCl): 545 nm

SMILES: CCCCCCCCn1c(=O)c2cc3cc4cc5c(=O)n(CCCCCCCC)c(=O)c5cc4c(C#Cc4ccc(N(c5ccccc5)c5ccccc5)cc4)c3cc2c1=O
- emission maximum (in ClC(Cl)Cl): 611 nm

SMILES: O=c1cc(-c2ccccc2)oc(-c2nc3ccccn3c2NC2CCCCC2)c1
- emission maximum (in ClCCl): 475 nm

SMILES: CCCCCCN(CCCCCC)c1ccc(C#Cc2ccc(C#Cc3ccc(-c4ccc(C#Cc5ccc(C#Cc6ccc(N(CCCCCC)CCCCCC)cc6)cc5)cc4)cc3)cc2)cc1
- emission maximum (in Cc1ccccc1): 433 nm

SMILES: COc1ccc(C2=CC(c3ccc(OC)cc3)=[O+][B-](C(C)=O)(C(C)=O)O2)cc1
- emission maximum (in CC#N): 435 nm
- emission maximum (in ClC(Cl)(Cl)Cl): 420 nm

SMILES: COOCc1noc(-c2ccccc2)c1Br
- emission maximum (in C1CCCCC1): 345 nm

SMILES: CCCCCCCCCCCCOc1cc2cc(N(C)C)ccc2cc1C=C(C#N)C#N
- emission maximum (in C1CCOC1): 576 nm
- emission maximum (in CC#N): 613 nm
- emission maximum (in CCCCCC): 653 nm
- emission maximum (in CCO): 610 nm
- emission maximum (in CCOC(C)=O): 571 nm
- emission maximum (in CS(C)=O): 631 nm
- emission maximum (in ClCCl): 578 nm
- emission maximum (in O): 674 nm

SMILES: C(#Cc1ccncc1)C(C#Cc1ccncc1)=Cc1ccc(C=C(C#Cc2ccncc2)C#Cc2ccncc2)cc1
- emission maximum (in ClC(Cl)Cl): 472 nm

SMILES: CCCCC1(CCCC)c2cc(C#Cc3ccc(C=C(c4ccccc4)c4ccccc4)cc3)ccc2-c2ccc(C#Cc3ccc(C=C(c4ccccc4)c4ccccc4)cc3)cc21
- emission maximum (in C1CCOC1): 416 nm

SMILES: c1cc2c3c(cccc3c1)C(N1CCOCCOCCOCCOCC1)=N2
- emission maximum (in CC#N): 590 nm

SMILES: NCCCCCCCCCCCCN1C(=O)c2ccc3c4ccc5c6c(ccc(c7ccc(c2c37)C1=O)c64)C(=O)N(c1ccc(O)cc1)C5=O
- emission maximum (in CN(C)C=O): 534 nm

SMILES: c1ccc(-c2cnc3nn4ccccc4c3c2)cc1
- emission maximum (in C1CCOC1): 415 nm

SMILES: c1ccc2c(-n3cnc4ccccc43)cccc2c1
- emission maximum (in C1CCCCC1): 358 nm
- emission maximum (in C1CCOC1): 359 nm
- emission maximum (in CC#N): 362 nm
- emission maximum (in CCO): 360 nm
- emission maximum (in CCOC(C)=O): 361 nm
- emission maximum (in CCOCC): 361 nm
- emission maximum (in CO): 360 nm
- emission maximum (in Cc1ccccc1): 359 nm
- emission maximum (in ClC(Cl)Cl): 362 nm

SMILES: CC1=CC(C)=[N+]2C1=C(c1c3ccccc3c(C)c3ccccc13)c1c(C)cc(C)n1[B-]2(F)F
- emission maximum (in CC#N): 518 nm
- emission maximum (in CCCCCC): 512 nm
- emission maximum (in CCO): 516 nm
- emission maximum (in CN(C)C=O): 519 nm
- emission maximum (in Cc1ccccc1): 517 nm
- emission maximum (in ClCCl): 519 nm

SMILES: CC(C)(C(=O)c1ccc(N2c3ccccc3Oc3ccccc32)cc1)C(=O)c1ccc(N2c3ccccc3Oc3ccccc32)cc1
- emission maximum (in Cc1ccccc1): 562 nm
- emission maximum (in c1ccc2c(c1)c1ccccc1n2-c1ccc(-c2ccc(-n3c4ccccc4c4ccccc43)cc2)cc1): 520.81 nm

SMILES: CN(C)c1[se]c(-c2ccc(Cl)cc2)nc1-c1ccccc1
- emission maximum (in ClC(Cl)Cl): 455 nm

SMILES: CC1=[N+]2C(=C(c3c4ccccc4cc4ccccc34)c3ccc(C)n3[B-]2(F)F)C=C1
- emission maximum (in C1CCOC1): 528 nm
- emission maximum (in CC#N): 524 nm
- emission maximum (in CCCCCC): 524 nm and 528 nm
- emission maximum (in CCO): 524 nm
- emission maximum (in CN(C)C=O): 531 nm
- emission maximum (in CO): 527 nm
- emission maximum (in CS(C)=O): 529 nm
- emission maximum (in Cc1ccccc1): 530 nm
- emission maximum (in ClC(Cl)Cl): 526 nm
- emission maximum (in ClCCl): 528 nm

SMILES: c1ccc2c(c1)-c1ccccc1C21c2ccccc2-c2c1c1c3ccccc3ccc1c1ccccc21
- emission maximum (in C1CCOC1): 417 nm

SMILES: N#Cc1c(-n2c3ccc(Br)cc3c3cc(Br)ccc32)c(C#N)c(-n2c3ccc(Br)cc3c3cc(Br)ccc32)c(-n2c3ccc(Br)cc3c3cc(Br)ccc32)c1-n1c2ccc(Br)cc2c2cc(Br)ccc21
- emission maximum (in Cc1ccccc1): 521 nm

SMILES: CC(C)(C)c1cc2c3cc(C(C)(C)C)c(-c4cc5cc6c7cccc8cccc(c9cc(C(C)(C)C)cc(c5cc4C(C)(C)C)c96)c87)cc3cc3c4cccc5cccc(c(c1)c23)c54
- emission maximum (in CC1CCCCC1): 454 nm

SMILES: CCN(CC)c1ccc2cc(-c3cc(SC)c(C#N)c(=O)o3)c(=O)oc2c1
- emission maximum (in C1CCOC1): 558 nm
- emission maximum (in CC#N): 578 nm
- emission maximum (in CC(C)=O): 573 nm
- emission maximum (in CCOC(C)=O): 554 nm
- emission maximum (in CN(C)C=O): 585 nm
- emission maximum (in CO): 582 nm
- emission maximum (in CS(C)=O): 593 nm
- emission maximum (in Cc1ccccc1): 533 nm
- emission maximum (in ClC(Cl)Cl): 547 nm
- emission maximum (in ClCCl): 560 nm

SMILES: N#Cc1cc(-c2ccc(N3c4ccccc4Oc4ccccc43)cc2)c(-c2ccc(N3c4ccccc4Oc4ccccc43)cc2)cc1C#N
- emission maximum (in Cc1ccccc1): 577 nm
- emission maximum (in c1cc(-c2cccc(-n3c4ccccc4c4ccccc43)c2)cc(-n2c3ccccc3c3ccccc32)c1): 540 nm

SMILES: N#Cc1c(-n2c3ccc(Cl)cc3c3cc(Cl)ccc32)c(C#N)c(-n2c3ccc(Cl)cc3c3cc(Cl)ccc32)c(-n2c3ccc(Cl)cc3c3cc(Cl)ccc32)c1-n1c2ccc(Cl)cc2c2cc(Cl)ccc21
- emission maximum (in Cc1ccccc1): 518 nm

SMILES: c1ccc2c(c1)-c1ccccc1C21c2ccccc2-c2cnccc21
- emission maximum (in CC1CCCO1): 318 nm

SMILES: O=c1c2ccccc2c2c(C#C[Si](c3ccccc3)(c3ccccc3)c3ccccc3)c3c(=O)c4ccccc4c3c(C#C[Si](c3ccccc3)(c3ccccc3)c3ccccc3)c12
- emission maximum (in ClC(Cl)Cl): 570 nm

SMILES: COc1ccc(-c2ccc3c(c2)c2cc(-c4ccc(OC)cc4)ccc2n3-c2ccc(C(=O)c3ccc4sc5ccccc5c4c3)nc2)cc1
- emission maximum (in Cc1ccccc1): 487.2 nm
- emission maximum (in c1cc(-n2c3ccccc3c3ccccc32)cc(-n2c3ccccc3c3ccccc32)c1): 493 nm

SMILES: CC(C)(C)c1ccc2c(c1)sc1[n+]2[B-](F)(F)n2c(c3cccc4c(Br)ccc2c43)=C1C#N
- emission maximum (in C1CCOC1): 563 nm
- emission maximum (in CC#N): 558 nm
- emission maximum (in CCCCCC): 558 nm
- emission maximum (in Cc1ccccc1): 563 nm
- emission maximum (in ClCCl): 560 nm

SMILES: c1ccc(-c2cc(-c3ccccc3)cc(-c3ccc4c(c3)C3(c5ccccc5-4)c4ccccc4-c4c3c3c5ccccc5c(-c5cc(-c6ccccc6)cc(-c6ccccc6)c5)cc3c3ccccc43)c2)cc1 (stereo unspecified)
- emission maximum (in C1CCOC1): 440 nm

SMILES: CCN(CC)c1ccc(-c2ccc(-c3nc4ccccc4c(=O)[nH]3)s2)cc1
- emission maximum (in CC#N): 541 nm
- emission maximum (in Cc1ccccc1): 490 nm

SMILES: c1ccc2c(c1)Sc1ccccc1S2
- emission maximum (in CC1CCCCC1): 431 nm

SMILES: c1ccc2cc(-c3c4ccccc4c(-c4ccc(-c5ccc(-n6c7ccccc7c7ccccc76)cc5)cc4)c4ccccc34)ccc2c1
- emission maximum (in ClCCl): 427 nm

SMILES: CC1(CCCCC(=O)NCCCCCCO)C(/C=C/C=C/C=C2/N(CCCS(=O)(=O)[O-])c3ccc(S(=O)(=O)[O-])cc3C2(C)C)=[N+](CCCS(=O)(=O)[O-])c2ccc(S(=O)(=O)[O-])cc21 (stereo unspecified)
- emission maximum (in O): 672 nm

Further lines, results first:

- emission maximum (in ClCCl): 476 nm
SMILES: F[B-]1(F)Oc2ccc3ccccc3c2-c2c3c(c4c([n+]21)CCc1ccccc1-4)CCc1ccccc1-3

- emission maximum (in ClC(Cl)Cl): 464.6 nm
SMILES: F[B-]1(F)OC(c2ccc(C(F)(F)F)cc2)=Cc2c3ccccc3cc[n+]21

- emission maximum (in ClC(Cl)Cl): 722 nm
SMILES: Cc1ccc(/C2=c3\cc/c(o3)=C(\c3ccc(C)cc3)c3ccc([nH]3)-c3ccc4n3[B-](F)(F)[N+]3=C(C=CC3=C4c3cccs3)c3ccc2[nH]3)cc1

- emission maximum (in C1CCCCC1): 577.5 nm
- emission maximum (in CC#N): 578 nm
- emission maximum (in CCO): 582 nm
- emission maximum (in CCOC(C)=O): 578.5 nm
- emission maximum (in CO): 580 nm
- emission maximum (in OCC(F)(F)F): 576 nm
SMILES: Cc1ccc(C2=C3C=C(I)C=[N+]3[B-](F)(F)n3c2cc(I)c3I)cc1

- emission maximum (in ClC(Cl)Cl): 645 nm
SMILES: Cc1cc(C)c(C2=C3C=CC4=[N+]3[B-]3(Oc5ccccc54)Oc4ccccc4-c4ccc2n43)c(C)c1 (stereo unspecified)

- emission maximum (in CCCCCCC): 610 nm
SMILES: c1ccc2c3c(ccc2c1)-c1cccc2cc4ccccc4c-3c12

- emission maximum (in C1CCOC1): 545 nm
- emission maximum (in CC#N): 553 nm
- emission maximum (in CCO): 552 nm
- emission maximum (in CO): 558 nm
- emission maximum (in ClCCl): 544 nm
SMILES: O=C1C2=C(O[B-](F)(F)[n+]3c2ccc2ccccc23)c2ccc(N3CCOCC3)c3cccc1c23

- emission maximum (in C1CCOC1): 655 nm
SMILES: CSC1=C(C)C2=C(c3ccc(C)cc3)c3c(C)c(Cl)c(C)n3[B-](F)(F)[N+]2=C1C

- emission maximum (in CC#N): 450 nm
- emission maximum (in CCO): 466 nm
SMILES: Cc1cc(=O)oc2cc3cc(O)ccc3cc12

- emission maximum (in ClCCl): 753 nm
SMILES: F[B-]1(F)n2c(-c3ccccc3)c3ccc4ccccc4c3c2N=C2c3c(ccc4ccccc34)C(c3ccccc3)=[N+]21

- emission maximum (in ClCCl): 558 nm
SMILES: CCN(CC)c1c2ccc(=[N+]3CCCCC3)cc-2oc2cc(N3CCCCC3)ccc12

- emission maximum (in C1CCCCC1): 344 nm
SMILES: COC(=O)c1nc(Cl)c(-c2ccccc2)o1

- emission maximum (in ClC(Cl)Cl): 601 nm
SMILES: Cc1cc(C)c(C2=C3C=CC(c4cccc5ccccc45)=[N+]3[B-](F)(F)n3c2ccc3-c2cccc3ccccc23)c(C)c1

- emission maximum (in ClCCl): 422 nm
SMILES: CCOC(=O)c1c(-c2cc3ccc(OC)cc3oc2=O)nn(-c2cccc(C)c2)c1C(=O)OCC

- emission maximum (in O): 407 nm
SMILES: Nc1ccc2ccc([O-])cc2c1

- emission maximum (in CC#N): 477 nm
SMILES: CCN(CC)c1ccc2cc(/C=C/c3ccccc3)c(=O)oc2c1

- emission maximum (in CCO): 569 nm
- emission maximum (in O): 578 nm
SMILES: CN(C)c1ccc2c(-c3ccc(C(=O)[O-])cc3C(=O)[O-])c3ccc(=[N+](C)C)cc-3oc2c1

- emission maximum (in ClCCl): 623 nm
SMILES: F[B-]12Oc3ccccc3-c3c4[n+]5c(c([n+]31)-c1ccccc1O2)-c1ccccc1O[B-]5(F)Oc1ccccc1-4

- emission maximum (in ClC(Cl)Cl): 634 nm
SMILES: N#CC(C#N)=Cc1ccc(-c2ccc(N(c3ccccc3)c3ccccc3)cc2)s1

- emission maximum (in ClCCl): 430 nm
SMILES: CCn1c2ccc(-c3ccc(-c4cccs4)s3)cc2c2cc(-c3ccc(-c4cccs4)s3)ccc21
